From ChEMBL document CHEMBL1149393, “Single-site chemical modification at C10 of the baccatin III core of paclitaxel and Taxol C reduces P-glycoprotein interactions in bovine brain microvessel endothelial cells” (Bioorg Med Chem Lett, 2006)

Key:
Tubulin (Homo sapiens) [1] = biological target: T1, Tubulin (Homo sapiens) (UniProt P68371+Q9H4B7+P0DPH7+P68366+Q13509+Q71U36+P04350+Q3ZCM7+P07437+P68363+Q9BQE3+Q6PEY2+Q13885+Q9BVA1+Q9BUF5); assay: Activity in tubulin assembly assay relative to paclitaxel; type: functional
Tubulin (Homo sapiens) [2] = biological target: T1, Tubulin (Homo sapiens); assay: Cytotoxicity against human breast cancer MCF7 cell line relative to paclitaxel; type: functional, cell-based
Tubulin (Homo sapiens) [3] = biological target: T1, Tubulin (Homo sapiens); assay: Cytotoxicity against multidrug resistant breast cancer MCF7/ADR cell line relative to paclitaxel; type: functional, cell-based; conditions: NCI/ADR-RES
MCF7 = assay: Cytotoxicity against human breast cancer MCF7 cell line; type: functional; conditions: read-out: ED50 (the source's name)
NCI/ADR-RES = assay: Cytotoxicity against multidrug resistant breast cancer MCF7/ADR cell line; type: functional; conditions: Homo sapiens, read-out: ED50 (the source's name)

SMILES	Ratio ED50 (Tubulin (Homo sapiens) [1])	Ratio ED50 (Tubulin (Homo sapiens) [2])	Ratio ED50 (Tubulin (Homo sapiens) [3])	EC50 (MCF7)	EC50 (NCI/ADR-RES)
CCCCCC(=O)N[C@@H](c1ccccc1)[C@@H](O)C(=O)O[C@H]1C[C@@]2(O)[C@@H](OC(=O)c3ccccc3)[C@@H]3[C@]4(OC(C)=O)CO[C@@H]4C[C@H](O)[C@@]3(C)C(=O)[C@@H](O)C(=C1C)C2(C)C	1.6	9.2	3.1	–	–
CCCCCC(=O)N[C@@H](c1ccccc1)[C@@H](O)C(=O)O[C@H]1C[C@@]2(O)[C@@H](OC(=O)c3ccccc3)[C@@H]3[C@]4(OC(C)=O)CO[C@@H]4C[C@H](O)[C@@]3(C)C(=O)[C@@H](OC(C)=O)C(=C1C)C2(C)C	0.21	3.2	1.6	–	–
CCCCCC(=O)N[C@@H](c1ccccc1)[C@@H](O)C(=O)O[C@H]1C[C@@]2(O)[C@@H](OC(=O)c3ccccc3)[C@@H]3[C@]4(OC(C)=O)CO[C@@H]4C[C@H](O)[C@@]3(C)C(=O)[C@H](O)C(=C1C)C2(C)C	2.2	4.8	3.8	–	–
CC(=O)O[C@@]12CO[C@@H]1C[C@H](O)[C@@]1(C)C(=O)[C@H](O)C3=C(C)[C@@H](OC(=O)[C@H](O)[C@@H](NC(=O)c4ccccc4)c4ccccc4)C[C@@](O)([C@@H](OC(=O)c4ccccc4)[C@H]21)C3(C)C	2.1	7.5	6.6	–	–
CC(=O)O[C@@]12CO[C@@H]1C[C@H](O)[C@@]1(C)C(=O)[C@@H](O)C3=C(C)[C@@H](OC(=O)[C@H](O)[C@@H](NC(=O)c4ccccc4)c4ccccc4)C[C@@](O)([C@@H](OC(=O)c4ccccc4)[C@H]21)C3(C)C	3.2	1.4	0.7	–	–

The next lines start with results.

Ratio ED50 (Tubulin (Homo sapiens) [1])	SMILES	Ratio ED50 (Tubulin (Homo sapiens) [2])	Ratio ED50 (Tubulin (Homo sapiens) [3])	EC50 (MCF7)	EC50 (NCI/ADR-RES)
1	CC(=O)O[C@H]1C(=O)[C@@]2(C)[C@H]([C@H](OC(=O)c3ccccc3)[C@]3(O)C[C@H](OC(=O)[C@H](O)[C@@H](NC(=O)c4ccccc4)c4ccccc4)C(C)=C1C3(C)C)[C@]1(OC(C)=O)CO[C@@H]1C[C@@H]2O [PACLITAXEL]	–	–	3.23 nM	1.53 nM
0.8	CC(=O)O[C@@H]1C(=O)[C@@]2(C)[C@H]([C@H](OC(=O)c3ccccc3)[C@]3(O)C[C@H](OC(=O)[C@H](O)[C@@H](NC(=O)c4ccccc4)c4ccccc4)C(C)=C1C3(C)C)[C@]1(OC(C)=O)CO[C@@H]1C[C@@H]2O	0.7	1.3	–	–
2.1	CCCCCC(=O)N[C@@H](c1ccccc1)[C@@H](O)C(=O)O[C@H]1C[C@@]2(O)[C@@H](OC(=O)c3ccccc3)[C@@H]3[C@]4(OC(C)=O)CO[C@@H]4C[C@H](O)[C@@]3(C)C(=O)[C@@H](OC(=O)CC)C(=C1C)C2(C)C	3.8	2.9	–	–
4.1	CCC(=O)O[C@@H]1C(=O)[C@@]2(C)[C@H]([C@H](OC(=O)c3ccccc3)[C@]3(O)C[C@H](OC(=O)[C@H](O)[C@@H](NC(=O)c4ccccc4)c4ccccc4)C(C)=C1C3(C)C)[C@]1(OC(C)=O)CO[C@@H]1C[C@@H]2O	2.6	1.1	–	–
2	CCCCCC(=O)N[C@@H](c1ccccc1)[C@@H](O)C(=O)O[C@H]1C[C@@]2(O)[C@@H](OC(=O)c3ccccc3)[C@@H]3[C@]4(OC(C)=O)CO[C@@H]4C[C@H](O)[C@@]3(C)C(=O)[C@H](OC(C)=O)C(=C1C)C2(C)C	2.2	0.48	–	–
